Laboratory results as given in ChEMBL document CHEMBL1201862, “PubChem BioAssay data set” (2004).
Active and inactive are the calls of the source. Rule as the data show it: actives have a measured IC50 and inactives only a lower limit.

Target: Envelope glycoprotein gp160 (Human immunodeficiency virus 1, UniProt Q6QLK5)
Test: cell-free HIV fusion peptide-binding blockers – biochemical, uHTS, fluorescence dequenching, […] (AID 1986)

Sequence of Envelope glycoprotein gp160 (Q6QLK5 whole entry, the tested form may be a part): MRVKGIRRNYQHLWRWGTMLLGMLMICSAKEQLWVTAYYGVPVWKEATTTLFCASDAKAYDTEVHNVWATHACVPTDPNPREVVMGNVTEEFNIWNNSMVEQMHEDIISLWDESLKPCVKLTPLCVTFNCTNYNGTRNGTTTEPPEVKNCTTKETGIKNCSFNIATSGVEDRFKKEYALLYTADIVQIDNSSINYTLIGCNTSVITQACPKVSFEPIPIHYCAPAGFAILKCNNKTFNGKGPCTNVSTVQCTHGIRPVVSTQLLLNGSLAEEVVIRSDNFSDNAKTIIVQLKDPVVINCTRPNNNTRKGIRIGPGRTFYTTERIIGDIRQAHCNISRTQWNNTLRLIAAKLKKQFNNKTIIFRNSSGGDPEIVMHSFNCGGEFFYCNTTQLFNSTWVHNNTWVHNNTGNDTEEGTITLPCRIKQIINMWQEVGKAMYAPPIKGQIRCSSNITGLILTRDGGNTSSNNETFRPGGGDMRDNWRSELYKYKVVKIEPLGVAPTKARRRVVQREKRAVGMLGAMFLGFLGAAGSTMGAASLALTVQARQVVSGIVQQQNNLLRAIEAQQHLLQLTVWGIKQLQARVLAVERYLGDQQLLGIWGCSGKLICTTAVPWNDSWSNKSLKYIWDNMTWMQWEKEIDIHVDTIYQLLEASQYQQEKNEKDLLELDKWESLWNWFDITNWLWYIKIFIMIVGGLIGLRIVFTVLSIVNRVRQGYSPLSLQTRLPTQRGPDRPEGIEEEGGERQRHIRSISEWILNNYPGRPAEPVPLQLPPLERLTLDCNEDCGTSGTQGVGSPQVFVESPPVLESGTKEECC

| Structure (SMILES) | IC50 |
| --- | --- |
| O=C(Nc1cccc(C(F)(F)F)c1)c1cccc(NS(=O)(=O)c2ccc(O)c(C(=O)O)c2)c1 | 8.83 µM (active) |
| COC(=O)c1sc(-c2ccc(C(C)(C)C)cc2)cc1NC(=O)COCC(=O)O | 20.9 µM (active) |
